PubChem BioAssay (NCI)
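All cell lines were grown in 96-well plates and treated with compound for 48 hours. Definition used: TGI = concentration required for complete inhibition of growth.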

Legend:
Experiment in all cases: inhibition of tumour cell growth, NCI panel, 48 h
[1] = tested on: 786-0 renal
[2] = tested on: A498 renal
[3] = tested on: A549 NSCLC
[4] = tested on: ACHN renal
[5] = tested on: BT-549 breast
[6] = tested on: CAKI-1 renal
[7] = tested on: CCRF-CEM leukemia
[8] = tested on: COLO 205 colon
[9] = tested on: DU-145 prostate
[10] = tested on: EKVX NSCLC
[11] = tested on: HCT-116 colon
[12] = tested on: HCT-15 colon
[13] = tested on: HL-60(TB) leukemia
[14] = tested on: HS 578T breast
[15] = tested on: HT29 colon
[16] = tested on: IGROV1 ovarian
[17] = tested on: K-562 leukemia
[18] = tested on: KM12 colon
[19] = tested on: LOX IMVI melanoma
[20] = tested on: M14 melanoma
[21] = tested on: MALME-3M melanoma
[22] = tested on: MDA-MB-231 breast
[23] = tested on: MDA-MB-435
[24] = tested on: MDA-N
[25] = tested on: MOLT-4 leukemia
[26] = tested on: NCI-H226 lung
[27] = tested on: NCI-H23 lung
[28] = tested on: NCI-H460 lung
[29] = tested on: NCI-H522 lung
[30] = tested on: NCI/ADR-RES ovarian
[31] = tested on: OVCAR-3 ovarian
[32] = tested on: OVCAR-5 ovarian
[33] = tested on: OVCAR-8 ovarian
[34] = tested on: PC-3 prostate
[35] = tested on: RPMI-8226 leukemia
[36] = tested on: RXF 393 renal
[37] = tested on: SF-268 CNS
[38] = tested on: SF-295 CNS
[39] = tested on: SF-539 CNS
[40] = tested on: SK-MEL-2 melanoma
[41] = tested on: SK-MEL-28 melanoma
[42] = tested on: SK-MEL-5 melanoma
[43] = tested on: SK-OV-3 ovarian
[44] = tested on: SN12C renal
[45] = tested on: SNB-19 CNS
[46] = tested on: SNB-75 CNS
[47] = tested on: SR leukemia
[48] = tested on: SW-620 colon
[49] = tested on: TK-10 renal
[50] = tested on: U251 CNS
[51] = tested on: UACC-257 melanoma
[52] = tested on: UACC-62 melanoma
[53] = tested on: UO-31 renal
[54] = tested on: HCC-2998 colon
[55] = tested on: HOP-62 NSCLC
[56] = tested on: HOP-92 NSCLC
[57] = tested on: MCF7 breast
[58] = tested on: OVCAR-4 ovarian

Measured: TGI

CCOC(=O)Cc1cc(=O)oc2cc(O)ccc12
> 100 µM: [1] | [2] | [3] | [4] | [5] | [6] | [7] | [8] | [9] | [10] | [11] | [12] | [13] | [14] | [15] | [16] | [17] | [18] | [19] | [20] | [21] | [22] | [23] | [24] | [25] | [26] | [27] | [28] | [29] | [30] | [31] | [32] | [33] | [34] | [35] | [36] | [37] | [38] | [39] | [40] | [41] | [42] | [43] | [44] | [45] | [46] | [47] | [48] | [49] | [50] | [51] | [52] | [53]

Cc1cc2c(cc1C)[n+]([O-])c(NCCCN(C)C)c(C#N)[n+]2[O-]
> 100 µM: [1] | [2] | [3] | [4] | [5] | [6] | [7] | [10] | [54] | [11] | [12] | [13] | [55] | [56] | [14] | [15] | [16] | [17] | [18] | [19] | [20] | [21] | [57] | [23] | [24] | [25] | [26] | [27] | [28] | [29] | [30] | [31] | [58] | [32] | [33] | [34] | [35] | [36] | [37] | [38] | [39] | [40] | [41] | [43] | [44] | [45] | [46] | [47] | [48] | [49] | [50] | [51] | [52] | [53]
